Results as given in US20240376099A1, “COMPOUNDS AND COMPOSITIONS AS INHIBITORS OF ENDOSOMAL TOLL-LIKE RECEPTORS” (Novartis AG, priority 2016, published 2024).

Each molecule was assayed against T1, TLR9 (Homo sapiens, UniProt Q9NR96) (assay: huPBMC TLR9 Antagonist IFNα Assay). Conditions: human PBMCs stimulated with ODN2216 0.3 μM, 14-16 hrs; IFNα2b AlphaLISA read-out.
T1 construct: Fresh blood was collected from normal human donors; endogenous in cells; host or cells: human PBMCs from fresh donor blood
T1 sequence (Q9NR96 26-1032): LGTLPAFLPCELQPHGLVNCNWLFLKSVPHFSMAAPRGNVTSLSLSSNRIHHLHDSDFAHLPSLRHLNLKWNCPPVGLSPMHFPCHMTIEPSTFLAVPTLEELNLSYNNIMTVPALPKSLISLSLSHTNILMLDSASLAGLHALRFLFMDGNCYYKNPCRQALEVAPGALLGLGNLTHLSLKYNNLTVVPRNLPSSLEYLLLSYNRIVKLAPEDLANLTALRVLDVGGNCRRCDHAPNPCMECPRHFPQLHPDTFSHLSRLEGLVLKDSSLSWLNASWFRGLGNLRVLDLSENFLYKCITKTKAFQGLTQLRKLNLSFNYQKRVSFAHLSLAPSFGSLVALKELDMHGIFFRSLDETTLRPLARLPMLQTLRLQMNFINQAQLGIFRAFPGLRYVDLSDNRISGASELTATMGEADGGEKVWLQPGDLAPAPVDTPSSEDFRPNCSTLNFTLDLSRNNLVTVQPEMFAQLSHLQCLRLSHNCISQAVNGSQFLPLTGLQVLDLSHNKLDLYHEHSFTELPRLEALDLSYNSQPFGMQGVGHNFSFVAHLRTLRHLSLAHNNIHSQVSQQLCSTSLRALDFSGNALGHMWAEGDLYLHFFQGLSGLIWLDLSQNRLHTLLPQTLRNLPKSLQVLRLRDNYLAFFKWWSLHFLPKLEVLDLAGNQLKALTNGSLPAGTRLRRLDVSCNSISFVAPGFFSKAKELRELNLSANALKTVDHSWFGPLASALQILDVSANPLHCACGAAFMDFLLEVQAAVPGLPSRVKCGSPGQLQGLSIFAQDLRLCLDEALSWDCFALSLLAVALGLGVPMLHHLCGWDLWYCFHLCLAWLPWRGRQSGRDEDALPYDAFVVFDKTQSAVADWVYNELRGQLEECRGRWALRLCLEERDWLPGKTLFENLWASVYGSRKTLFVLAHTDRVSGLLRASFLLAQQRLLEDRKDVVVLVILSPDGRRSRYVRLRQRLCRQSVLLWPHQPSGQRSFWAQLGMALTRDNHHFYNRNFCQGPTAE
Format: cell-based
Experimental: Compounds were generally serially diluted (1/3) in DMSO and plated on sterile 384 well tissue culture plates and stored until ready for use. Each ten-point dilution was typically plated in triplicate in parallel rows.
Fresh blood was collected from normal human donors underwritten informed consent in heparinized syringes on the morning of the assay. The blood was diluted in RPMI-1640 medium and the white blood cells were separated from red blood cells by centrifugation (800 g 15′ 0 acceleration, 0 brake) on a Ficoll cushion. Peripheral blood mononuclear cells (PBMCs) were separated from platelets by a series of low-speed centrifugations (1000RPM 10′) in PBS+5% HI—FBS and 1 mM EDTA. Purified PBMCs were re-suspended in assay medium (RPMI-1640 w Glutamax (Invitrogen) supplemented with 5% HI—FBS, 10 mM HEPES, 50 uM β-mercaptoethanol, and 100 mG/L penicillin/streptomycin cocktail). Viable PBMCs were counted on a hemacytometer and kept on ice until ready for plating.
A 4× concentration (4 ug/ml or 40 ug/ml for TLR8 or TLR7 assays, respectively) of the TLR7/8 agonist ssRNA40 (IDT) was complexed with 10% DOTAP (Roche) in assay medium for 30 min prior to addition to the PBMC suspension (5 million cells/ml). After addition, the final concentration of ssRNA40 in the TLR7/8 stimulated PBMC suspension was 1 μg/ml for TLR8 assay, and 10 μg/mL for the TLR7 assay. The final DOTAP concentration was 2.5%. Diluted PBMCs (5 million cells/ml) were treated with 4×TLR9 agonist ODN2216 (Invivogen). Final concentration of ODN2216 in TLR9 stimulated PBMC suspension was 0.3 μM.
Agonist stimulated PBMCs were plated on the compound treated 384 well plates at 150,000 cells/well. Un-stimulated PBMCs were plated as controls on each plate. Plating volume was 40 μL per well. DMSO concentration in each well was 0.25%.
A separate plate, without compounds, with titrations of ssRNA40 and ODN2216 was included in every assay to measure agonist response of each donor's PBMC prep. Assay plates were placed in a tissue culture incubator (37° C., 5% CO2) for 14-16 hrs. After this incubation, the plates were centrifuged and stored at −20° C. until they were assayed.
IL-6 TR-FRET Assay for TLR8 activity: • 1) Cisbio Human IL-6 kit, 20,000 tests (62TNFPEC), and GNF High-Base TC 384 well plates (cat #789163G) were used; • 2) the Anti-TIL-6 Cryptate conjugate and the Anti-IL-6 XL665 conjugate were diluted 1:20 in Reconstitution Buffer; • 3) a 1:1 mixture of 3 μl/well Anti-IL-6 Cryptate conjugate and 3 μl/well Anti-IL-6 XL665 conjugate was prepared; • 4) 6 μl/well HTRF dilution mastermix was added to 6 μl of transferred supernatant samples in proxiplates; • 5) The plates were incubated for 3 hrs at rt in the dark; and • 6) the levels of IL-6 production was measured using an Envision plate reader (665 nm (emmission)/590 nm (excitation)) with HTRF settings and ratiometric read-out: (XL665 emission/Eu Cryptate emission)×10,000. IFNα2b AlphaLISA Assay for TLR7 or TLR9 activity After thawing the assay plates, 6 μL of supernatant samples were transferred to a low-volume AlphaPlate 384SW (Perkin-Elmer). The concentration of IFNα in supernatants was measured using the IFNα2b AlphaLISA Assay (Perkin-Elmer: AL297F). 3 μL of IFNα acceptor beads/biotinylated antibody solution was added first, using laboratory automation. After an hour incubation, […] of streptavidin […] bead solution was added. The plates containing this mixture were incubated in the dark for an hour and read on an appropriate plate reader at reading parameters set by the manufacturer. (Envision, EnSpire: Perkin-Elmer).

Row | Structure (SMILES) | IC50 [nM]
1 | Cc1cc(N2CCc3c(c(C)nn3CC34CCC(NC(=O)CCN)(CC3)CC4)C2)c2cnn(C)c2n1 [compound 115, 3-amino-N-(4-((5-(1,6-dimethyl-1H-pyrazolo[3,4-b]pyridin-4-yl)-3-methyl-4,5,6,7-tetrahydro-1H-pyrazolo[4,3-c]pyridin-1-yl)methyl)bicyclo[2.2.2]octan-1-yl)propanamide] | > 10000
2 | [2H]C([2H])([2H])n1ncc2c(N3CCc4c(c(C)nn4CC45CCC(N)(CC4)CC5)C3)cc(C)nc21 [Compound No. 140, 4-((3-methyl-5-(6-methyl-1-(methyl-d3)-1H-pyrazolo[3,4-b]pyridin-4-yl)-4,5,6,7-tetrahydro-1H-pyrazolo[4,3-c]pyridin-1-yl)methyl)bicyclo[2.2.2]octan-1-amine] | 1800
3 | Cc1nc(N2CCc3c(c(C)nn3CC34CCC(NC5CCC5)(CC3)CC4)C2)c2c(n1)c(C)nn2C [compound 27, N-cyclobutyl-4-((3-methyl-5-(1,3,5-trimethyl-1H-pyrazolo[4,3-d]pyrimidin-7-yl)-4,5,6,7-tetrahydro-1H-pyrazolo[4,3-c]pyridin-1-yl)methyl)bicyclo[2.2.2]octan-1-amine] | > 10000
4 | CN[C@H](C)C(=O)NC12CCC(Cn3nc(C)c4c3CCN(c3cc(C)nc5c3cnn5C)C4)(CC1)CC2 [compound 117, (R)-N-(4-((5-(1,6-dimethyl-1H-pyrazolo[3,4-b]pyridin-4-yl)-3-methyl-4,5,6,7-tetrahydro-1H-pyrazolo[4,3-c]pyridin-1-yl)methyl)bicyclo[2.2.2]octan-1-yl)-2-(methylamino)propanamide] | 954
5 | Cc1cc(N2CCc3c(c(C)nn3CC34CCC(N5CC6(COC6)C5)(CC3)CC4)C2)c2cnn(C)c2n1 [compound 116, 6-(4-((5-(1,6-dimethyl-1H-pyrazolo[3,4-b]pyridin-4-yl)-3-methyl-4,5,6,7-tetrahydro-1H-pyrazolo[4,3-c]pyridin-1-yl)methyl)bicyclo[2.2.2]octan-1-yl)-2-oxa-6-azaspiro[3.3]heptane] | 1570
6 | Cc1cc(N2CCc3c(c(C)nn3CC34CCC(N)(CC3)CC4)C2)c2ccncc2n1 [Compound No. 3, 4-((3-methyl-5-(2-methyl-1,7-naphthyridin-4-yl)-4,5,6,7-tetrahydro-1H-pyrazolo[4,3-c]pyridin-1-yl)methyl)bicyclo[2.2.2]octan-1-amine] | 1930
7 | Cc1cc(N2CCc3c(c(C)nn3CC34CCC(NC(=O)CO)(CC3)CC4)C2)c2cnn(C)c2n1 [Compound No. 135, N-(4-((5-(1,6-dimethyl-1H-pyrazolo[3,4-b]pyridin-4-yl)-3-methyl-4,5,6,7-tetrahydro-1H-pyrazolo[4,3-c]pyridin-1-yl)methyl)bicyclo[2.2.2]octan-1-yl)-2-hydroxyacetamide] | > 10000
8 | CN[C@@H](C)C(=O)NC12CCC(Cn3nc(C)c4c3CCN(c3cc(C)nc5c3cnn5C)C4)(CC1)CC2 [compound 118] | 775
9 | Cc1nc(N2CCc3c(c(C)nn3CC34CCC(N5CCOCC5)(CC3)CC4)C2)c2cn[nH]c2n1 [compound 21, 4-(4-((3-methyl-5-(6-methyl-1H-pyrazolo[3,4-d]pyrimidin-4-yl)-4,5,6,7-tetrahydro-1H-pyrazolo[4,3-c]pyridin-1-yl)methyl)bicyclo[2.2.2]octan-1-yl)morpholine] | > 10000
10 | Cc1cc(N2CCc3c(c(C)nn3CC34CCC(N5C[C@@H](C)O[C@@H](C)C5)(CC3)CC4)C2)c2cnn(C)c2n1 [compound 110, (2S,6R)-4-(4-((5-(1,6-dimethyl-1H-pyrazolo[3,4-b]pyridin-4-yl)-3-methyl-4,5,6,7-tetrahydro-1H-pyrazolo[4,3-c]pyridin-1-yl)methyl)bicyclo[2.2.2]octan-1-yl)-2,6-dimethylmorpholine] | 1900
11 | Cc1cc(N2CCc3c(c(C)nn3CC34CCC(NCC5CCC5)(CC3)CO4)C2)c2cnn(C)c2n1 [compound 112, N-(cyclobutylmethyl)-1-((5-(1,6-dimethyl-1H-pyrazolo[3,4-b]pyridin-4-yl)-3-methyl-4,5,6,7-tetrahydro-1H-pyrazolo[4,3-c]pyridin-1-yl)methyl)-2-oxabicyclo[2.2.2]octan-4-amine] | 1190
12 | Cc1cc(N2CCc3c(c(C)nn3CC34CCC(NC(=O)[C@H]5COCCN5)(CC3)CC4)C2)c2cnn(C)c2n1 [Compound No. 9, (R)—N-(4-((5-(1,6-dimethyl-1H-pyrazolo[3,4-b]pyridin-4-yl)-3-methyl-4,5,6,7-tetrahydro-1H-pyrazolo[4,3-c]pyridin-1-yl)methyl)bicyclo[2.2.2]octan-1-yl)morpholine-3-carboxamide] | 5100
13 | Cc1cc(N2CCc3c(c(C)nn3CC34CCC(NC(=O)C5CNCCO5)(CC3)CC4)C2)c2cnn(C)c2n1 (stereo not shown) [compound 125, N-(4-((5-(1,6-dimethyl-1H-pyrazolo[3,4-b]pyridin-4-yl)-3-methyl-4,5,6,7-tetrahydro-1H-pyrazolo[4,3-c]pyridin-1-yl)methyl)bicyclo[2.2.2]octan-1-yl)morpholine-2-carboxamide] | 909
14 | CCNC12CCC(Cn3nc(C)c4c3CCN(c3ccnc(-c5ccccc5)c3)C4)(CC1)CC2 [compound 127, N-ethyl-4-((3-methyl-5-(2-phenylpyridin-4-yl)-4,5,6,7-tetrahydro-1H-pyrazolo[4,3-c]pyridin-1-yl)methyl)bicyclo[2.2.2]octan-1-amine] | 545
15 | Cc1nc(N2CCc3c(c(C)nn3CC34CCC(N5CCCC5)(CC3)CC4)C2)c2cnn(C)c2n1 [compound 16, 1,6-dimethyl-4-(3-methyl-1-((4-(pyrrolidin-1-yl)bicyclo[2.2.2]octan-1-yl)methyl)-6,7-dihydro-1H-pyrazolo[4,3-c]pyridin-5(4H)-yl)-1H-pyrazolo[3,4-d]pyrimidine] | > 10000
16 | Cc1cc(N2CCc3c(c(C)nn3CC34CCC(N)(CC3)C4)C2)c2cnn(C)c2n1 [compound 44, 4-((5-(1,6-dimethyl-1H-pyrazolo[3,4-b]pyridin-4-yl)-3-methyl-4,5,6,7-tetrahydro-1H-pyrazolo[4,3-c]pyridin-1-yl)methyl)bicyclo[2.2.1]heptan-1-amine] | 1210
